Assay results reported in patent US8618080B2, “Immunomodulatory compounds and treatment of diseases related to an overproduction of inflammatory cytokines” (OM Pharma, priority 2006, dated 2013).

Assays:
human CD4+ T cells = experiment: Cytokine production and proliferation of naïve CD4+ T cells stimulated with anti-CD3 and anti-CD28; type: cell-based; settings: 0.02-20 μg/ml; for IFN-γ production by CD4+ T cells / IL-13 production by CD4+ T cells: 6 days, ELISA
Procedure: A series of four compounds of the present invention (OM-197-MP-AC, OM-197-MC-HD, OM-294-BA-MP, OM-197-MP-HD) were tested directly as summarized below:
Naïve CD4^+ T cells were magnetically sorted from healthy blood donor (buffy coat). The cells were stimulated in the presence or not of graded doses of triacyl derivatives (0.02; 0.2; 2 and 20 μg/ml) using plate-bound anti-CD3 (5 μg/ml) and soluble anti-CD28 (1 μg/ml). After 6 days, cytokine levels (IFN-γ and IL-13) were tested in the culture supernatants using ELISA.
FIGS. 3A-3D: Effect of increasing doses of the four compounds tested (OM-197-MP-AC, n=5; OM-197-MC-HD, n=5; OM-294-BA-MP, n=7; OM-197-MP-HD, n=3) on IFN-γ and IL-13 production of human CD4^+ T cells following a polyclonal activation. Results are expressed as the median (±p25/p75) of n independent experiments and show the percentage (%) proliferation or cytokine production of treated cells versus untreated cells (considered as 100%, see dotted line). The statistical analysis was performed using a nonparametric unpaired Mann-Whitney t test (2-tailed).

murine DC cells = experiment: LPS-induced IL-12, TNF-α and IL-10 production by bone marrow derived dendritic cells; type: cell-based, murine (C57BL/7); settings: murine BM-derived DC; compound 0.01-100 μg/ml 1 h 30 before LPS 1 μg/ml; 20 h; ELISA
Procedure: Femora and tibiae from two male C57BL/7, 6 week-old (Charles River Laboratories France), were removed, stripped of muscles and tendons, and desinfected with 70% ethanol. Both ends of each bone were cut and the marrow was flushed with HBSS (Gibco BRL) using a syringe with a 26-gauge needle. The resulting cell suspension was centrifuged for 5 min. at 500 g and washed in HBSS. The cells were resuspended at 3×10^5 cells/ml in RPMI-1640 (Gibco BRL) supplemented with 2 mM L-glutamin (Sigma), 100 U/ml penicillin (Sigma), 100 μg/ml streptomycin (Sigma), 50 μM β-mercaptoethanol (Sigma), 10% heat-inactivated FCS (Sigma) and 15 ng/ml murine rGM-CSF (R&D).
To generate bone marrow (BM) derived dendritic cells (DC), BM leukocytes were cultured in 100-mm bacteriological petri dishes (Falcon 1029) for 8 days at 37° C. in 5% CO2. On day 0, 10 ml of cell suspension were seeded per dish. On day 3, another 10 ml of freshly prepared medium were added to each plate and on day 6, 9 ml of top medium were carefully removed from each plate and replaced by 10 ml of fresh medium.
Non-adherent cells of the 8-day old BM cell cultures were collected, centrifuged for 5 min. at 500 g, and resuspended at 1.25×10^6 cells/ml in supplemented RPMI containing 10 ng/ml GM-CSF. The cells were then seeded in 24-well tissue culture plates ([…]) and incubated for 1 h 30 at 37° C. in 5% CO2 in the absence or presence of OM-294-DP or OM-197-MP-AC (0.01-100 μg/ml/200 μl/well). LPS (E.coli O26:B6, Sigma), was then added at 1 μg/ml, and the plates were further incubated. After 20 h incubation, the supernatants were collected for analysis of cytokines. IL-12p70, IL-10, and TNF-α concentrations in DC culture supernatants were measured by ELISA using OptEIA matched Ab pairs from BD Pharmingen. Supersignal ELISA Pico chemiluminescent peroxidase substrate (BD Pharmingen) was used for the detection by luminometry (Wallac 1420 multilabel counter Victor-2). The assays were performed according to manufacturer's instructions.
FIG. 1: IL-12 (left panels) and IL-10 (right panels) secretion by murine DC stimulated by LPS (1 μg/ml) alone, or first during 90 minutes with the indicated concentrations (in μg/ml) of OM-197-MP-AC (A) or 294-DP (B), and then by LPS (1 μg/ml) for 20 additional hours. The supernatants were collected from the DC cultures and analyzed by ELISA for the presence of IL-12 and IL-10.
FIG. 2: TNF-α secretion by murine DC stimulated by LPS (1 μg/ml) alone, or first during 90 minutes with the indicated concentrations (in μg/ml) of 294-DP (294), or of OM-197-MP-AC (197), and then by LPS (1 μg/ml) for 20 additional hours. The supernatants were collected from the DC cultures and analyzed by ELISA for the presence of TNF-α.

[1] = test system: Limulus Amoebocyte Lysate; experiment: Limulus Amoebocyte Lysate chromogenic test (LAL endotoxicity); type: biochemical
Procedure: Endotoxicity was determined first for OM-197-MP-AC and for OM-294-DP by the Limulus Amoebocyte Lysate chromogenic test (Chromogenic-LAL of Bio-Whittaker, kit n° 50-65OU).
The enzymatic reaction is carried out at 37° C. and the formation of the chromogen over time is measured at 405 nm. The time necessary to reach 0.2 units of D.O. is recorded and the endotoxic activity calculated in relation to a LPS standard (standard curve). The results are expressed in EU (Endotoxin Unit) in relation to a standardized preparation of E. coli LPS (1 EU corresponds to 0.08 ng equivalent LPS).

SMILES	T cell proliferation (human CD4+ T cells)	IFN-γ production by CD4+ T cells (human CD4+ T cells)	IL-13 production by CD4+ T cells (human CD4+ T cells)	LPS-induced production of IL-10 (murine DC cells)	LPS-induced production of IL-12 (murine DC cells)	LPS-induced production of TNF-α (murine DC cells)	Limulus activity in the chromogenic LAL assay [1]
CCCCCCCCCCCC(=O)O[C@H](CCCCCCCCCCC)CC(=O)N[C@@H](CC(=O)O)C(=O)NCCC[C@H](COC(=O)CCCCC(O)CO)NC(=O)C[C@H](O)CCCCCCCCCCC (stereo partly drawn) [OM-197-MC-HD, N-[(R)-3-dodecanoyloxytetradecanoylamino]-L-aspartic acid, α-N-{(4R)-5-hydroxy-4-[(R)-3-hydroxytetradecanoylamino]pentyl}amide 5-O-(6,7-dihydroxyheptanoate)]	unaffected	unaffected	reduced				
CCCCCCCCCCCC(=O)O[C@H](CCCCCCCCCCC)CC(=O)N[C@@H](CCOP(=O)(O)O)C(=O)NCCC[C@H](COC(=O)CCCCC(O)CO)NC(=O)C[C@H](O)CCCCCCCCCCC (stereo partly drawn) [OM-197-MP-HD, (3S, 9R)-3-[(R)-3-dodecanoyloxytetradecanoylamino]-4-oxo-5-aza-9-[(R)-3-hydroxytetradecanoylamino]-decan-1, 10-diol 1-dihydrogenophosphate 10-(6,7-dihydroxyheptanoate)]	unaffected	unaffected	reduced				
CCCCCCCCCCCC(=O)O[C@H](CCCCCCCCCCC)CC(=O)N[C@@H](CCCCN)C(=O)NCCC[C@H](COP(=O)(O)O)NC(=O)C[C@H](O)CCCCCCCCCCC [OM-294-BA-MP, (5S,11R)-1-Amino-5-[(R)-3-dodecanoyloxytetradecanoylamino]-6-oxo-7-aza-11-[(R)-3-hydroxytetradecanoylamino]-dodecan-12-ol 12-dihydrogenophosphate]	unaffected	unaffected	reduced				
CCCCCCCCCCCC(=O)O[C@H](CCCCCCCCCCC)CC(=O)N[C@@H](CCOP(=O)(O)O)C(=O)NCCC[C@H](COP(=O)(O)O)NC(=O)C[C@H](O)CCCCCCCCCCC [OM-294-DP]				increase	decrease	decrease	very little or no Limulus activity
